Test results from patent publication US10709697B2, “Bis-amines, compositions, and uses related to CXCR4 inhibition” (Emory University, priority 2015, dated 2020).

What was measured:
CXCR4 = target: T1, CXCR4 (Homo sapiens, UniProt P61073); experiment: Primary binding affinity screening (competition with biotinylated TN14003)
T1 construct: endogenous in cells; host or cells: MDA-MB-231
Experimental: The compounds were initially screened with a binding affinity assay. […] MDA-MB-231 cells were pre-incubated with compounds at concentrations of 1, 10, 100, and 1000 nM, then incubated with biotinylated TN14003 and streptavidin-conjugated rhodamine to determine the binding efficiency of the new compounds to the CXCL12 binding domain of CXCR4. […] Thus, this screening is a semi-quantitative, first pass measure of the level of activity.
For binding affinity assay, 2×10^4 MDA-MB-231 cells in 300 μL of cell culture medium were seeded in an 8-well slide chamber 2 days before the experiments were conducted. Various concentrations of different compounds (1, 10, 100, or 1000 nM) were added to the separate wells and incubated for 10 min at room temperature, and then the cells were fixed in 4% ice-cold paraformaldehyde. The cells were rehydrated in phosphate-buffered saline (PBS). The slides were subsequently incubated for 30 min at room temperature with 0.05 μg/mL biotinylated TN14003, washed three times with PBS, and incubated in streptavidin-rhodamine (1:150 dilution; Jackson ImmunoResearch Laboratories, West Grove, Pa.) for 30 min at room temperature. Finally, the slides were washed with PBS and mounted in an anti-fade mounting solution (Molecular Probes, Eugene, Oreg.), and the samples were analyzed on a Nikon Eclipse E800 microscope.

[1] = test system: CXCR4/CXCL12-mediated chemotaxis and invasion; experiment: Matrigel invasion assay; format: cell-based; settings: for inhibition at 0.1 µM: single concentration of 100 nM, CXCL12 as chemoattractant, FIG. 2, read-out: inhibitory rate, Matrigel invasion; for Invasion Assay: Table 2; for Invasion: Table 3, concentration used 100 nM
Source text: To model in vitro metastasis, a Matrigel® invasion assay was used as the functional assay. […] A layer of Matrigel® matrix-coated permeable support (8 μm pore diameter) separates the upper and lower chambers.

[2] = effective concentration = lowest concentration with significant reduction of rhodamine fluorescence, MDA-MB-231 cells, tested at 1, 10, 100, 1000 nM

T1 sequence (P61073 whole entry): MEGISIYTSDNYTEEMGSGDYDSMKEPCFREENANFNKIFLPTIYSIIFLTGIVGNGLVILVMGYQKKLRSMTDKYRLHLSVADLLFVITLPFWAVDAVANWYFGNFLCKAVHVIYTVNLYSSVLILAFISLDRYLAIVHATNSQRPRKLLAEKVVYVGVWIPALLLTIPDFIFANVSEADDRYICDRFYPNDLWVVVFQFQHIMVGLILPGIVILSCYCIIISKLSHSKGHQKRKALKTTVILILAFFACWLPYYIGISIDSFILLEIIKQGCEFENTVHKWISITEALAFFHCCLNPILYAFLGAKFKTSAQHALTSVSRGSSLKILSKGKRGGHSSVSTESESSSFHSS

Structure (SMILES)	EC (CXCR4; [2]) [nM]	also measured
CN(Cc1ccc(CN(C)Cc2ccccc2F)cc1)Cc1ccccc1F [Ih, N,N′-(1,4-Phenylenebis(methylene))bis(1-(2-fluorophenyl)-N-methylmethanamine)]	>1000	–
CN(Cc1ccncc1)Cc1ccc(CN(C)Cc2ccncc2)cc1 [Ip, N,N′-(1,4-Phenylenebis(methylene))bis(N-methyl-1-(pyridin-4-yl)methanamine)]	>1000	–
CCN(Cc1ccccc1)Cc1cccc(CN(CC)Cc2ccccc2)n1 [IIl, N,N′-(Pyridine-2,6-diylbis(methylene))bis(N-benzylethanamine)]	>1000	–
c1cc(CN2CCCCC2)nc(CN2CCCCC2)c1 [IIb, 2,6-Bis(piperidin-1-ylmethyl)pyridine]	1	inhibition at 0.1 µM [1]: 65.3%
CN(Cc1ccncc1)Cc1cccc(CN(C)Cc2ccncc2)n1 [IIp, N,N′-(Pyridine-2,6-diylbis(methylene))bis(N-methyl-1-(pyridin-4-yl)methanamine)]	>1000	–
c1ccc(CN(Cc2cccc(CN(Cc3ccccc3)CC3CC3)n2)CC2CC2)cc1 [IIm, N,N′-(Pyridine-2,6-diylbis(methylene))bis(N-benzyl-1-cyclopropylmethanamine)]	1	inhibition at 0.1 µM [1]: 100%
c1cc(CN2CCCC2)ccc1CN1CCCC1 [Ia, 1,4-Bis(pyrrolidin-1-ylmethyl)benzene]	1000	–
CN(Cc1cccc(Cl)c1)Cc1cccc(CN(C)Cc2cccc(Cl)c2)n1 [IIg, N,N′-(Pyridine-2,6-diylbis(methylene))bis(1-(3-chlorophenyl)-N-methylmethanamine)]	10	inhibition at 0.1 µM [1]: 88.6%
CN(Cc1cccc(F)c1)Cc1cccc(CN(C)Cc2cccc(F)c2)n1 [IIi, N,N′-(Pyridine-2,6-diylbis(methylene))bis(1-(3-fluorophenyl)-N-methylmethanamine)]	>1000	–
CCc1ccc(NCc2ccc(CNc3ccc(CC)cc3)nc2)cc1 [2,5-pyridine H 4-Et Phenyl, N′-(Pyridine-2,5-diylbis(methylene))bis(4-ethylaniline)]	–	Invasion Assay [1]: 64%; EC (CXCR4; Table 2): 1 nm
CN(Cc1cccc(CN(C)c2ccc(F)cc2)n1)c1ccc(F)cc1 [IIe, N,N′-(Pyridine-2,6-diylbis(methylene))bis(4-fluoro-N-methylaniline)]	1000	inhibition at 0.1 µM [1]: < 50%
Cc1cccc(NCc2ccc(CNc3cccc(C)c3)nc2)c1 [N,N′-(Pyridine-2,5-diylbis(methylene))bis(3-methylaniline)]	–	Invasion Assay [1]: 60.2%; Invasion [1]: 58%; EC (CXCR4; Table 2): 100 nm; EC (CXCR4; Table 3): 1 nM
c1cc(CN2CCCC2)nc(CN2CCCC2)c1 [IIa, 2,6-Bis(pyrrolidin-1-ylmethyl)pyridine]	1	–
CN(Cc1cccc(CN(C)Cc2ccccc2F)n1)Cc1ccccc1F [IIh, N,N′-(Pyridine-2,6-diylbis(methylene))bis(1-(2-fluorophenyl)-N-methylmethanamine)]	1000	–
CN(Cc1ccc(CN(C)Cc2cccc(F)c2)cc1)Cc1cccc(F)c1 [Ii, N,N′-(1,4-Phenylenebis(methylene))bis(1-(3-fluorophenyl)-N-methylmethanamine)]	>1000	–
c1ccc(CN(Cc2ccc(CN(Cc3ccccc3)CC3CC3)cc2)CC2CC2)cc1 [Im, N,N′-(1,4-Phenylenebis(methylene))bis(N-benzyl-1-cyclopropylmethanamine)]	1000	–
CCN(Cc1ccccc1)Cc1ccc(CN(CC)Cc2ccccc2)cc1 [Il, N,N′-(1,4-Phenylenebis(methylene))bis(N-benzylethanamine)]	1000	–
c1cc(CN2CCCNCCNCCCNCC2)ccc1CN1CCCNCCNCCCNCC1 [AMD3100, reference compound]	1000	Invasion [1]: 62%; EC (CXCR4; Table 3): 1000 nM
CN(Cc1ccc(F)cc1)Cc1cccc(CN(C)Cc2ccc(F)cc2)n1 [IIj, N,N′-(Pyridine-2,6-diylbis(methylene))bis(1-(4-fluorophenyl)-N-methylmethanamine)]	1000	–
CN(Cc1cccnc1)Cc1cccc(CN(C)Cc2cccnc2)n1 [IIo, N,N′-(Pyridine-2,6-diylbis(methylene))bis(N-methyl-1-(pyridin-3-yl)methanamine)]	>1000	–
Fc1cccc(NCc2ccc(CNc3cccc(F)c3)nc2)c1 [2,5-pyridine H 3-F Phenyl, N,N′-(Pyridine-2,5-diylbis(methylene))bis(3-fluoroaniline)]	–	Invasion Assay [1]: 50%; EC (CXCR4; Table 2): 10 nm
CN(Cc1ccc(CN(C)Cc2ccccc2Cl)cc1)Cc1ccccc1Cl [If, N,N′-(1,4-Phenylenebis(methylene))bis(1-(2-chlorophenyl)-N-methylmethanamine)]	>1000	–
CN(Cc1ccc(CN(C)Cc2cccnc2)cc1)Cc1cccnc1 [Io, N,N′-(1,4-Phenylenebis(methylene))bis(N-methyl-1-(pyridin-3-yl)methanamine)]	>1000	–
c1cc(CN2CCOCC2)nc(CN2CCOCC2)c1 [IIc, 2,6-Bis(morpholinomethyl)pyridine]	100	inhibition at 0.1 µM [1]: 68.9%
CN(Cc1cccc(CN(C)Cc2ccccc2Cl)n1)Cc1ccccc1Cl [IIf, N,N′-(Pyridine-2,6-diylbis(methylene))bis(1-(2-chlorophenyl)-N-methylmethanamine)]	>1000	–
CN(Cc1ccc(CN(C)Cc2cccc(Cl)c2)cc1)Cc1cccc(Cl)c1 [Ig, N,N′-(1,4-Phenylenebis(methylene))bis(1-(3-chlorophenyl)-N-methylmethanamine)]	1000	–
COc1cccc(CN(C)Cc2ccc(CN(C)Cc3cccc(OC)c3)cc2)c1 [Ik, N,N′-(1,4-Phenylenebis(methylene))bis(1-(3-methoxyphenyl)-N-methylmethanamine)]	10	inhibition at 0.1 µM [1]: < 50%
CN(Cc1ccc(CN(C)Cc2ccccn2)cc1)Cc1ccccn1 [In, N,N′-(1,4-Phenylenebis(methylene))bis(N-methyl-1-(pyridin-2-yl)methanamine)]	>1000	–
